From patent US12264156B2, “Compounds and pharmaceutical compositions thereof for the treatment of diseases” (GALAPAGOS NV, priority 2018, dated 2025)

Assays:
Format in all cases: biochemical
Details in all cases: ADP-Glo SIK kinase assay
SIK3 = target: T1, SIK3 (Homo sapiens, UniProt Q9Y2K2); test: ADP-Glo kinase assay, SIK3
T1 construct: purchased SignalChem S12-11G-100
Procedure: (§1) The ADP-Glo™ kinase assay is a luminescent technology assay which measures the ADP formed from a kinase reaction. […] In a second step the kinase reactions are terminated and all the remaining ATP is depleted. In a final step the ADP is converted into ATP and this newly synthesized ATP is measured by using a luciferase/luciferin reaction. The generated light is measured using an Envision plate reader, wherein the luminescent signal obtained positively correlates with the kinase activity.
(§2) 1% DMSO and 10 μM staurosporine final concentrations are used as negative and positive controls.
(§3) 2 μL enzyme-substrate mixture is added to the assay plates.
(§4) The reaction is started by adding 2 μL diluted ATP on the assay plates. Plates are centrifuged for a few seconds at 1000 rpm and gently shaken for 2 min followed by an incubation at RT for 120 min.
(§5) The reactions are stopped and the unconsumed ATP is depleted by adding 5 μL ADP-Glo Reagent (Promega, Cat #V912B) to the reaction. The plates are centrifuged for a few seconds at 1000 rpm and incubated at RT for 40 min (ATP depletion).
(§6) The ADP is converted to ATP and luciferase and luciferin is introduced to detect ATP by adding 10 μL Kinase Detection Reagent (Promega, Cat #V913B+V914B) to the reaction. The plates are centrifuged for a few seconds at 1000 rpm and incubated at RT for 30 min (ADP detection).
(§7) Luminescence is measured on an Envision plate reader (PerkinElmer Inc.).

SIK2 = target: T2, SIK2 (Homo sapiens, UniProt Q9H0K1); test: ADP-Glo kinase assay, SIK2
T2 construct: purchased ThermoFisher Scientific PV4792
Procedure: as §1, §2, §3, §4, §5, §6, §7

SIK1 = target: T3, SIK1 (Homo sapiens, UniProt P57059); test: ADP-Glo kinase assay, SIK1
T3 construct: purchased Carna Biosciences 02-131
Procedure: as §1, §2, §3, §4, §5, §6, §7

T3 sequence (P57059 whole entry): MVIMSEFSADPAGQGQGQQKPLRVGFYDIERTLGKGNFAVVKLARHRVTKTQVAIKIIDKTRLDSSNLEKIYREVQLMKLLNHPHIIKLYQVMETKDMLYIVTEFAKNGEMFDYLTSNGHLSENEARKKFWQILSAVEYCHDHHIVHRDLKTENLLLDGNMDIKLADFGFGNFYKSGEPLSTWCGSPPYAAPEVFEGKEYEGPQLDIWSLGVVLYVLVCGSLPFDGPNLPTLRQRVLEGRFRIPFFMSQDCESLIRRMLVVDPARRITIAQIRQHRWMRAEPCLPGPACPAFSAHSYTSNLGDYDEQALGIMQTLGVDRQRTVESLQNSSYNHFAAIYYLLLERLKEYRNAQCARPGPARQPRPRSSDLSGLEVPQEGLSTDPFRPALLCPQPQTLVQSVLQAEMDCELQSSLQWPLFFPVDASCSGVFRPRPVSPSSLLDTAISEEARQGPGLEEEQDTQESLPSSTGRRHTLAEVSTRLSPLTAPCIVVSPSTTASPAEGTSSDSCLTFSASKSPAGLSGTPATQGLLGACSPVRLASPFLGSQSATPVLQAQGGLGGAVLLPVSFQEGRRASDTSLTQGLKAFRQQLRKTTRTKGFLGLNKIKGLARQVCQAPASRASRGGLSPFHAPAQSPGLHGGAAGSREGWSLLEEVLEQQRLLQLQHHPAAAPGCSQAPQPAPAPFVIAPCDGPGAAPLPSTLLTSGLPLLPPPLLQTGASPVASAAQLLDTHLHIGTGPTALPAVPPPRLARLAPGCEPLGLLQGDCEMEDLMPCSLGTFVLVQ
T2 sequence (Q9H0K1 whole entry): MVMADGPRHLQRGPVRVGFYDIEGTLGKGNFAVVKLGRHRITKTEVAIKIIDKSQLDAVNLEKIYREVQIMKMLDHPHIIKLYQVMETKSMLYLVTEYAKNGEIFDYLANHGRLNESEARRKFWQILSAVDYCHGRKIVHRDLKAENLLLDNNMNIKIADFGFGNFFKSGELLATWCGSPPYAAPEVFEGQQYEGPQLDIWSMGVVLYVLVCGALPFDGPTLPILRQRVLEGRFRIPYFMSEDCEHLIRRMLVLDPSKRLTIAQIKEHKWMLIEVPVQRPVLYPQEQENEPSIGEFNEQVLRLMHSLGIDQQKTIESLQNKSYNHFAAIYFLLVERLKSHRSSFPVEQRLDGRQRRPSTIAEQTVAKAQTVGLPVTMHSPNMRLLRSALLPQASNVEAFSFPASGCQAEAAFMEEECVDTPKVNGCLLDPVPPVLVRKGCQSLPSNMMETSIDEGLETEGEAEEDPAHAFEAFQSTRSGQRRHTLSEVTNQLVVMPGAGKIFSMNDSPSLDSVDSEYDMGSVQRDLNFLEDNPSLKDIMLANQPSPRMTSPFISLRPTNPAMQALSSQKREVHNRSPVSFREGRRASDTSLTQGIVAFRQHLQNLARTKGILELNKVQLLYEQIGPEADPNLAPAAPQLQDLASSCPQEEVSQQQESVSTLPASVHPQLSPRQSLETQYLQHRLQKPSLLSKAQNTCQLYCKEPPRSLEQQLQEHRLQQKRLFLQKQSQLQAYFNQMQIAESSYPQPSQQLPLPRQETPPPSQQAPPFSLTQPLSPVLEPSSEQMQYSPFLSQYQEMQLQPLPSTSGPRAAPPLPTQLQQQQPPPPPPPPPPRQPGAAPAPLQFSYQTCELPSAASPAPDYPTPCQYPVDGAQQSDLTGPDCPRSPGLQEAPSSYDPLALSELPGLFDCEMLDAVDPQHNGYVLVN
T1 sequence (Q9Y2K2 whole entry): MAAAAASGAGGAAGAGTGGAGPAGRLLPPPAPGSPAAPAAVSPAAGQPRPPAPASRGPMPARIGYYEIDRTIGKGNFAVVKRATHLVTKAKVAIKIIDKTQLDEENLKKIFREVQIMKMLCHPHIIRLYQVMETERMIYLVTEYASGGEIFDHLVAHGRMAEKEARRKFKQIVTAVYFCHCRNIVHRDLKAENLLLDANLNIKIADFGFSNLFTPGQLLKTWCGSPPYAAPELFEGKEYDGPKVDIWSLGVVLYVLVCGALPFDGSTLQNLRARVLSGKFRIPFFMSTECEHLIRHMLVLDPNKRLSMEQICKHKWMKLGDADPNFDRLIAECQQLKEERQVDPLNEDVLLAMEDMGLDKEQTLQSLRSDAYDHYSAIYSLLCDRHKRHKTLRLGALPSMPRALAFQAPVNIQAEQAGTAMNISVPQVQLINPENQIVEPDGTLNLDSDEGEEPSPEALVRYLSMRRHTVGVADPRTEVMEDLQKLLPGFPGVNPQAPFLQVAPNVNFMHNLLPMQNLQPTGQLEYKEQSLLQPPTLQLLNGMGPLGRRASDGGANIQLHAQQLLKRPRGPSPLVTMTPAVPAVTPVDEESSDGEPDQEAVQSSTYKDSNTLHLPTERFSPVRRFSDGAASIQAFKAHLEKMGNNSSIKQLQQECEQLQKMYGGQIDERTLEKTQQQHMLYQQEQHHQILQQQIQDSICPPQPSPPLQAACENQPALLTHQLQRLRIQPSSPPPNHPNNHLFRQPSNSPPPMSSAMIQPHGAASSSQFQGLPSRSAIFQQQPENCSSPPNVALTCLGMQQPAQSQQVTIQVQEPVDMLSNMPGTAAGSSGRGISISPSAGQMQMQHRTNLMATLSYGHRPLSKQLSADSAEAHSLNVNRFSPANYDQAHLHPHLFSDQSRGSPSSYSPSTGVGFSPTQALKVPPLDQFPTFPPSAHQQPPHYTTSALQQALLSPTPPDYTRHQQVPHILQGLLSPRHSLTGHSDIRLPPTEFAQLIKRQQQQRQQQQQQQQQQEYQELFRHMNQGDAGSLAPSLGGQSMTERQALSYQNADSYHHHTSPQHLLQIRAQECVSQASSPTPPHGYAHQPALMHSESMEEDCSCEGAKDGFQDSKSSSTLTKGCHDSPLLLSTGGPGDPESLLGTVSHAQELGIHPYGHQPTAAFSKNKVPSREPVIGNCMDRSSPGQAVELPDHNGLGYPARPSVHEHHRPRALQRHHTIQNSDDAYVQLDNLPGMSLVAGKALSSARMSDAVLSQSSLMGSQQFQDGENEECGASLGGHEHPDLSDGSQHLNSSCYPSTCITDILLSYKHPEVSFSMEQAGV

Row | Structure (SMILES) | IC50 (SIK3) | IC50 (SIK2) | IC50 (SIK1)
1 | COC(=O)N1CCCCC1COc1ccn2c(-c3cc(OC)c(C(=O)NC4CC4)c(OC(F)F)c3)cnc2c1 (stereo not drawn) [Cpd 130, methyl 2-[[3-[4-(cyclopropylcarbamoyl)-3-(difluoromethoxy)-5-methoxy-phenyl]imidazo[1,2-a]pyridin-7-yl]oxymethyl]piperidine-1-carboxylate] | 0.01 to 10 nM | 0.01 to 10 nM | 0.01 to 10 nM
2 | COc1cc(-c2cnc3cc(OCC4CC4(F)F)ccn23)cc(OC(F)F)c1C(=O)NC1CC1 (stereo not drawn) [compound 42, N-cyclopropyl-4-[7-[(2,2-difluorocyclopropyl)methoxy]imidazo[1,2-a]pyridin-3-yl]-2-(difluoromethoxy)-6-methoxy-benzamide] | 0.01 to 10 nM | 0.01 to 10 nM | 0.01 to 10 nM
3 | COc1cc(-c2cnc3cc(OCC4CCCCN4CC(F)(F)F)ccn23)cc(OC(F)F)c1C(=O)NC1CC1 (stereo not drawn) [Cpd 182, N-cyclopropyl-2-(difluoromethoxy)-6-methoxy-4-[7-[[1-(2,2,2-trifluoroethyl)-2-piperidyl]methoxy]imidazo[1,2-a]pyridin-3-yl]benzamide] | 0.01 to 10 nM | 10 to 100 nM | 10 to 100 nM
4 | COc1cc(-c2cnc3cc(OCCNC(C)=O)ccn23)cc(OC(F)F)c1C(=O)NC1CC1 [compound 27, 4-[7-(2-acetamidoethoxy)imidazo [1,2-a]pyridin-3-yl]-N-cyclopropyl-2-(difluoromethoxy)-6-methoxy-benzamide] | 0.01 to 10 nM | 0.01 to 10 nM | 0.01 to 10 nM
5 | COc1cc(-c2cnc3cc(OCC4CCCOC4)ccn23)cc(OC(F)F)c1C(=O)NC1CC1 (stereo not drawn) [compound 59, N-cyclopropyl-2-(difluoromethoxy)-6-methoxy-4-[7-(tetrahydropyran-3-ylmethoxy)imidazo[1,2-a]pyridin-3-yl]benzamide] | 0.01 to 10 nM | 0.01 to 10 nM | 0.01 to 10 nM
6 | COCCOCCOc1ccn2c(-c3cc(OC)c(C(=O)NC4CC4)c(OC(F)F)c3)cnc2c1 [compound 38, N-cyclopropyl-2-(difluoromethoxy)-6-methoxy-4-[7-[2-(2-methoxyethoxy)ethoxy]imidazo[1,2-a]pyridin-3-yl]benzamide] | 0.01 to 10 nM | 0.01 to 10 nM | 10 to 100 nM
7 | COc1cc(-c2cnc3cc(OCCCOS(C)(=O)=O)ccn23)cc(OC(F)F)c1C(=O)NC1CC1 [Cpd 333, 3-[3-[4-(cyclopropylcarbamoyl)-3-(difluoromethoxy)-5-methoxy-phenyl]imidazo[1,2-a]pyridin-7-yl]oxypropyl methanesulfonate] | 0.01 to 10 nM | 0.01 to 10 nM | 10 to 100 nM
8 | COc1cc(-c2cnc3cc(OCc4nccs4)ccn23)cc(OC(F)F)c1C(=O)NC1CC1 [compound 47, N-cyclopropyl-2-(difluoromethoxy)-6-methoxy-4-[7-(thiazol-2-ylmethoxy)imidazo[1,2-a]pyridin-3-yl]benzamide] | 0.01 to 10 nM | 0.01 to 10 nM | 10 to 100 nM
9 | COc1cc(-c2cnc3cc(OCC4CCCC4)ccn23)cc(OC(F)F)c1C(=O)NC1CC1 [compound 61, 4-[7-(cyclopentylmethoxy)imidazo[1,2-a]pyridin-3-yl]-N-cyclopropyl-2-(difluoromethoxy)-6-methoxy-benzamide] | 0.01 to 10 nM | 0.01 to 10 nM | 0.01 to 10 nM
10 | COc1cc(-c2cnc3cc(OCC4(C)COC4)ccn23)cc(OC(F)F)c1C(=O)NC1CC1 [compound 89, N-cyclopropyl-2-(difluoromethoxy)-6-methoxy-4-[7-[(3-methyloxetan-3-yl)methoxy]imidazo[1,2-a]pyridin-3-yl]benzamide] | 0.01 to 10 nM | 0.01 to 10 nM | 10 to 100 nM
11 | COc1cc(-c2cnc3cc(OC[C@@H](N)CC(C)C)ccn23)cc(OC(F)F)c1C(=O)NC1CC1 [compound 132, 4-[7-[(2S)-2-amino-4-methyl-pentoxy]imidazo[1,2-a]pyridin-3-yl]-N-cyclopropyl-2-(difluoromethoxy)-6-methoxy-benzamide] | 0.01 to 10 nM | 0.01 to 10 nM | 10 to 100 nM
12 | COc1cc(-c2cnc3cc(OCC4CCN4)ccn23)cc(OC(F)F)c1C(=O)NC1CC1 (stereo not drawn) [Cpd 109, 4-[7-(azetidin-2-ylmethoxy)imidazo[1,2-a]pyridin-3-yl]-N-cyclopropyl-2-(difluoromethoxy)-6-methoxy-benzamide] | 0.01 to 10 nM | 0.01 to 10 nM | 10 to 100 nM
13 | COc1cc(-c2cnc3cc(OCC4(C)CC4)ccn23)cc(OC(F)F)c1C(=O)NC1CC1 [compound 97, N-cyclopropyl-2-(difluoromethoxy)-6-methoxy-4-[7-[(1-methylcyclopropyl)methoxy]imidazo[1,2-a]pyridin-3-yl]benzamide] | 0.01 to 10 nM | 0.01 to 10 nM | 10 to 100 nM
14 | COc1cc(-c2cnc3cc(OCCOCCO)ccn23)cc(OC(F)F)c1C(=O)NC1CC1 [compound 73] | 0.01 to 10 nM | 0.01 to 10 nM | 10 to 100 nM

Second part, the molecule after the results:

Row | IC50 (SIK3) | IC50 (SIK2) | IC50 (SIK1) | Structure (SMILES)
15 | 10 to 100 nM | 10 to 100 nM | > 500 nM | Cc1cc(-c2cnc3cc(OCCN4CCOCC4)ccn23)cc(OC(F)F)c1C(=O)NCC(F)(F)F [compound 243, 2-(difluoromethoxy)-6-methyl-4-[7-(2-morpholinoethoxy)imidazo[1,2-a]pyridin-3-yl]-N-(2,2,2-trifluoroethyl)benzamide]
16 | 0.01 to 10 nM | 0.01 to 10 nM | 10 to 100 nM | COc1cc(-c2cnc3cc(OCCNCCO)ccn23)cc(OC(F)F)c1C(=O)NC1CC1 [compound 114]
17 | 0.01 to 10 nM | 10 to 100 nM | 100 to 500 nM | COc1cc(-c2cnc3cc(OCC4(C)CN(C(=O)OC(C)(C)C)C4)ccn23)cc2c1C(=O)N(CC(F)(F)F)CC2 [compound 249, tert-butyl 3-[[3-[8-methoxy-1-oxo-2-(2,2,2-trifluoroethyl)-3,4-dihydroisoquinolin-6-yl]imidazo[1,2-a]pyridin-7-yl]oxymethyl]-3-methyl-azetidine-1-carboxylate]
18 | 0.01 to 10 nM | 0.01 to 10 nM | 10 to 100 nM | COc1cc(-c2cnc3cc(OCc4noc(C)n4)ccn23)cc(OC(F)F)c1C(=O)NC1CC1 [compound 231, N-cyclopropyl-2-(difluoromethoxy)-6-methoxy-4-[7-[(5-methyl-1,2,4-oxadiazol-3-yl)methoxy]imidazo[1,2-a]pyridin-3-yl]benzamide]
19 | 0.01 to 10 nM | 10 to 100 nM | 10 to 100 nM | COc1cc(-c2cnc3cc(OCC4CCCCN4CC(F)F)ccn23)cc(OC(F)F)c1C(=O)NC1CC1 (stereo not drawn) [compound 149, N-cyclopropyl-4-[7-[[1-(2,2-difluoroethyl)-2-piperidyl]methoxy]imidazo [1,2-a]pyridin-3-yl]-2-(difluoromethoxy)-6-methoxy-benzamide]
20 | 10 to 100 nM | 0.01 to 10 nM | 100 to 500 nM | COc1cc(-c2cnc3cc(OCCCN4CCCCC4)ccn23)cc(OC(F)F)c1C(=O)N[C@H]1CC[C@H]1O (racemic) [compound 353, 2-(difluoromethoxy)-6-methoxy-4-[7-[3-(1-piperidyl)propoxy]imidazo [1,2-a]pyridin-3-yl]-N-[(1S,2R)-2-hydroxycyclobutyl] benzamide/2-(difluoromethoxy)-N-[(1R,2S)-2-hydroxycyclobutyl]-6-methoxy-4-[7-[3-(1-piperidyl)propoxy]imidazo[1,2-a]pyridin-3-yl]benzamide mixture]
21 | 0.01 to 10 nM | 0.01 to 10 nM | 10 to 100 nM | COc1cc(-c2cnc3cc(OCCN4CCOC(C5CC5)C4)ccn23)cc(OC(F)F)c1C(=O)NC1CC1 (stereo not drawn) [compound 196, N-cyclopropyl-4-[7-[2-(2-cyclopropylmorpholin-4-yl)ethoxy]imidazo[1,2-a]pyridin-3-yl]-2-(difluoromethoxy)-6-methoxy-benzamide]
22 | 0.01 to 10 nM | 0.01 to 10 nM | 0.01 to 10 nM | COc1cc(-c2cnc3cc(OCCNc4ccccn4)ccn23)cc(OC(F)F)c1C(=O)NC1CC1 [compound 367, N-cyclopropyl-2-(difluoromethoxy)-6-methoxy-4-[7-[2-(2-pyridylamino)ethoxy]imidazo[1,2-a]pyridin-3-yl]benzamide]
23 | 0.01 to 10 nM | 0.01 to 10 nM | 0.01 to 10 nM | COc1cc(-c2cnc3cc(OC[C@H]4CCCN(C5COC5)C4)ccn23)cc(OC(F)F)c1C(=O)NC1CC1 [compound 318, N-cyclopropyl-2-(difluoromethoxy)-6-methoxy-4-[7-[[(3S)-1-(oxetan-3-yl)-3-piperidyl]methoxy]imidazo[1,2-a]pyridin-3-yl]benzamide]
24 | 0.01 to 10 nM | 0.01 to 10 nM | 100 to 500 nM | COc1cc(-c2cnc3cc(OCc4nccn4C(C)C)ccn23)cc(OC(F)F)c1C(=O)NC1CC1 [compound 175, N-cyclopropyl-2-(difluoromethoxy)-4-[7-[(1-isopropylimidazol-2-yl)methoxy]imidazo[1,2-a]pyridin-3-yl]-6-methoxy-benzamide]
25 | 0.01 to 10 nM | 0.01 to 10 nM | 0.01 to 10 nM | COc1cc(-c2cnc3cc(OCCc4cnn(C)c4)ccn23)cc(OC(F)F)c1C(=O)NC1CC1 [compound 204, N-cyclopropyl-2-(difluoromethoxy)-6-methoxy-4-[7-[2-(1-methylpyrazol-4-yl)ethoxy]imidazo[1,2-a]pyridin-3-yl]benzamide]
